# Read-outs that look alike come from different tables or passages of the source.
# Legend:
# [1] = Redissolution of fluorogenic substrate after dehydration; assay type: physicochemical
# Text: In the Sensititre™ procedure the substrates mixture consists of alanyl-7-amido-4-methylcoumarin, 4-methylumebelliferyl phosphate and 4-methylumbelliferyl nonanoate. […] Moreover, a special procedure of drying the substrate mixture on a solid carrier in combination with an emulsifying agent was the preferred method in the EP #0,09187 description. Removal of this compound from the mixture allows easy preparation and aliquoting of the fluorogenic substrate mixture. […] The current fluorogenic substrate mixture also allows for testing of a larger range of Gram positive species than previously described. Additionally, the use of the autoSCAN®-W/A allows monitoring of growth for between 31/2 and 15 hours, determination of minimum inhibitory concentration occurring only when sufficient growth has been achieved. This ensures that the minimum inhibitory concentration determinations of each isolate is determined at the optimal time.
# [2] = tested on: Enterococcus faecalis; experiment: Percent fluorescence (growth) in wells containing antimicrobial agents, Example 1 (Table 6); assay type: cell-based; settings: Enterococcus faecalis; for activity at 0.25 µg/mL: .25 μg/mL; for activity at 32 µg/mL: 32 μg/mL
# Protocol: (§1) A primary inoculum suspension of a bacterial isolate in saline-pluronic, equivalent to a 0.5 McFarland turbidity standard is prepared. The final inoculum suspension is prepared by diluting a 0.3 ml aliquot of the primary suspension in 25 ml of Rapid Pos Inoculum Broth (B1015-14, Baxter Diagnostics Inc., MicroScan Division, West Sacramento, Calif.). A 115 μl of the final inoculum is added to the growth compartment which contains dried material of fluorogenic enzyme substrates equivalent to 0.023 mM leucine-7-amido-4-methylcoumarin, 0.012 mM phenylalanine-7-amido-4-methylcoumarin and 0.058 mM methylumbelliferyl phosphate and 1.15 mM HEPES buffer at pH 7.0. The final inoculum is also added to a number of compartments containing dried material identical to that in the growth well and different concentrations of an antimicrobial agent. An aliquot of the final inoculum is also added to a compartment, containing only dried HEPES buffer, acting as a control. The inoculated multicompartment device (panel) is inserted in the autoSCAN®-W/A. The fluorescence of each compartment is measured at predetermined times and a Growth Index is calculated by dividing the fluorescence of the growth compartment by that of the negative control compartment.
# ^FL growth - ^FL control
# (§2) If the value of the Growth Index is equal to or exceeds a specified value, the Minimum Inhibitory Concentration for every antimicrobial agent present in the multicompartment device is calculated. Otherwise the device is returned to its position and measured again at the next read time. The read times in this example are 3.5, 4.5, 5.5, 7.0, 8.0, 11.0, and 15.0 hours. For calculation of minimum inhibitory concentration, the percent fluorescence of compartments containing the different concentrations of the antimicrobial agent is calculated by subtracting from each compartment the fluorescence of the control well and dividing it by the delta fluorescence of the growth compartment, obtained by subtracting the fluorescence of the negative control compartment from the fluorescence of the growth compartment. The minimum inhibitory concentration is calculated using a mathematical model specific for each concentration range of the antimicrobial agent. Using a mathematical model based on discriminate functional analysis, the minimum inhibitory concentration of each antimicrobial agent, for the organism tested, can be determined. Utilization of a discriminate function analysis model in microbiological pattern recognition is described in S. Bascomb, Computers in Taxonomy and Systematics, p. 65-102 In T. N. Bryant and J. W. T. Wimpenny (Ed.), Computers in Microbiology, a Practical Approach (IRL Press, Oxford). In an alternative embodiment the minimum inhibitory concentration for each antimicrobial agent for the organism tested can be determined by a breakpoint or threshold method or linear regression analysis. J. McKie, et al., Antimicrobial Agents and Chemotherapy (1980) v. 17, 813-823.
# (§3) In Example 1, the growth of Enterococcus faecalis in wells containing specified amounts of antimicrobial agents is estimated by measurement of fluorescence. In Table 6, the percent fluorescence at different concentrations of antimicrobial agents is reported. For example, 0.12, 0.25, 0.5, 1, 2, 4 and 8 μg/mL of ampicillin (Am) were present in the microdilution wells.
# The numbers 105, 105, 67, 7, 6, 5, 6 are percent fluorescence values as calculated in […]. These figures are used to determine susceptibility according to the methods discussed on pages 12 and 13.
# [3] = tested on: Enterococcus faecalis; experiment: Minimum inhibitory concentration determination, Example 1 (Table 7); assay type: cell-based
# Protocol: as §1, §2, §3
# In Table 7, the minimum inhibitory concentration for Example 1 are reported.
# [4] = 1 μg/mL, read-out: percent fluorescence
# [5] = 2 μg/mL, read-out: percent fluorescence
# [6] = 4 μg/mL, read-out: percent fluorescence
# [7] = 8 μg/mL, read-out: percent fluorescence
# [8] = Enterococcus faecalis, Table 7, Example 1, read-out: concentration at which organism was found to be susceptible
# [9] = Table 7, Enterococcus faecalis, Example 1, read-out: minimum inhibitory concentration
# [10] = 16 μg/mL, read-out: percent fluorescence
# [11] = Enterococcus faecalis, Table 7, Example 1, read-out: concentration at which organism was found to be resistant
# [12] = Enterococcus faecalis, read-out: concentration at which organism was found to be susceptible
# [13] = Enterococcus faecalis, read-out: minimum inhibitory concentration
"MIC [3, 9] [µg/mL]","MIC [3, 11] [µg/mL]",Structure (SMILES),"activity at 2 µg/mL [2, 5] [%]","activity at 4 µg/mL [2, 6] [%]","activity at 8 µg/mL [2, 7] [%]","activity at 16 µg/mL [2, 10] [%]",other results
,,CCCCCCCCC(=O)Oc1ccc2c(C)cc(=O)oc2c1 [4-methylumbelliferyl nonanoate],,,,,redissolution after dehydration [1]: difficult to redissolve evenly after dehydration
0.5,,CC1(C)S[C@@H]2[C@H](NC(=O)[C@H](N)c3ccccc3)C(=O)N2[C@H]1C(=O)O [Ampicillin],6,5,6,,"activity at 1 µg/mL [2, 4]: 7%; activity at 0.12 µg/mL ([2]; .12 μg/mL, read-out: percent fluorescence): 105%; activity at 0.25 µg/mL ([2]; read-out: percent fluorescence): 105%; activity at 0.5 µg/mL ([2]; .5 μg/mL, read-out: percent fluorescence): 67%; MIC [3, 8]: 0.5 µg/mL"
> 16,> 16,Cn1nnnc1SCC1=C(C(=O)O)N2C(=O)[C@@H](NC(=O)[C@H](O)c3ccccc3)[C@H]2SC1 [Cefamandole],,,104,105,
> 16,> 16,Cc1nnc(SCC2=C(C(=O)O)N3C(=O)[C@@H](NC(=O)Cn4cnnn4)[C@H]3SC2)s1 [Cefazolin],105,102,104,100,
> 4,,CO/N=C(\C(=O)N[C@@H]1C(=O)N2C(C(=O)O)=C(COC(C)=O)CS[C@H]12)c1csc(N)n1 [Cefotaxime],,10,8,8,"activity at 32 µg/mL [2]: 7%; MIC [3, 8]: < 4 µg/mL"
,,CO/N=C(\C(=O)N[C@@H]1C(=O)N2C(C(=O)O)=C(CSc3nc(=O)c(=O)[nH]n3C)CS[C@H]12)c1csc(N)n1 [Ceftriaxone],,15,9,8,activity at 32 µg/mL [2]: 7%
> 16,> 16,CO/N=C(\C(=O)N[C@@H]1C(=O)N2C(C(=O)O)=C(COC(N)=O)CS[C@H]12)c1ccco1 [Cefuroxime],85,39,15,10,
,,"CC(=O)OCC1=C(C(=O)O)N2C(=O)[C@@H](NC(=O)Cc3cccs3)[C@H]2SC1 [Cephalothin, Cephalotin]",,,,,"activity at 8 µg/mL ([2]; read-out: percent fluorescence): 103%; activity at 16 µg/mL ([2]; read-out: percent fluorescence): 7%; MIC [3, 12]: 16 µg/mL; MIC [3, 13]: 16 µg/mL"
,,O=C(N[C@H](CO)[C@H](O)c1ccc([N+](=O)[O-])cc1)C(Cl)Cl [Chloramphenicol],,,,,"activity at 4 µg/mL ([2]; read-out: percent fluorescence): 9%; activity at 8 µg/mL ([2]; read-out: percent fluorescence): 6%; activity at 16 µg/mL ([2]; read-out: percent fluorescence): 4%; MIC [3, 12]: < 4 µg/mL; MIC [3, 13]: < 4 µg/mL"
,,O=C(O)c1cn(C2CC2)c2cc(N3CCNCC3)c(F)cc2c1=O [Ciprofloxacin],,,,,"activity at 1 µg/mL ([2]; read-out: percent fluorescence): 6%; activity at 2 µg/mL ([2]; read-out: percent fluorescence): 6%; activity at 4 µg/mL ([2]; read-out: percent fluorescence): 6%; MIC [3, 12]: < 1 µg/mL; MIC [3, 13]: < 1 µg/mL"
> 2,> 2,"CCC[C@@H]1C[C@@H](C(=O)N[C@@H]([C@H]2O[C@H](SC)[C@H](O)[C@@H](O)[C@H]2O)[C@H](C)Cl)N(C)C1 [Clindaimycin, Clindamycin]",71,,,,"activity at 1 µg/mL [2, 4]: 75%; activity at 5 µg/mL ([2]; 5 μg/mL (printed 5Cd)): 83%; activity at 0.25 µg/mL ([2]; read-out: percent fluorescence): 88%"

# From US5457030A, “Method and composition for determining antimicrobial susceptibility of the majority clinically significant Gram postitive organism” (MicroScan, Inc., priority 1993, dated 1995)
